Results published in patent publication US4698300A, “Process and reagent for the determination of α-amylase” (Merck Patent Gesellschaft mit beschrankter Haftung, priority 1983, dated 1987).

Tests used:
α-amylase = experiment: determination of α-amylase, time-reaction curve with α-glucosidase and β-glucosidase, extinction at 405 nm; assay type: biochemical; settings: for extinction change per minute: substrate in α-amylase determination, FIG. 1, 405 nm, 30° C.
Experimental: For the determination of α-amylase, the reagent solution of substrate, α-glucosidase, β-glucosidase, buffer and activation agent is mixed with the sample solution and the extinction recorded at 405 nm e.g. at 30° C. Typically, 0.2-3.0 ml of reagent is mixed with 1.0-50 μl of sample for ordinary α-amylase concentrations.
Determination of α-amylase
A reagent composition is prepared which, per ml. of test volume, contains the following components: […]
2-chloro-4-nitrophenyl-β,D-
phosphate buffer (pH 6.8)
sodium chloride 0.05 Mol/l.
carrying out of the test: 1 ml. reagent + 10 μl. sample

[1] = pH dependency of the absorption; assay type: physicochemical; settings: reagent solution adjusted to pH 7.1, pH increased and decreased stepwise, FIG. 2, versus 4-nitrophenol
Experimental: Determination of α-amylase, pH dependency of the absorption
Under the same conditions as in Example 1, there are measured the extinctions of two reagent solutions adjusted to a pH value of 7.1, one of which contains 2-chloro-4-nitrophenol, the other 4-nitrophenol.

[2] = optimum pH conditions of the α-amylase determination (6.8-7.1); cited from earlier work

## O=[N+]([O-])c1ccc(O[C@@H]2O[C@H](CO)[C@@H](O[C@H]3O[C@H](CO)[C@@H](O[C@H]4O[C@H](CO)[C@@H](O[C@H]5O[C@H](CO)[C@@H](O[C@H]6O[C@H](CO)[C@@H](O[C@H]7O[C@H](CO)[C@@H](O[C@H]8O[C@H](CO)[C@@H](O)[C@H](O)[C@H]8O)[C@H](O)[C@H]7O)[C@H](O)[C@H]6O)[C@H](O)[C@H]5O)[C@H](O)[C@H]4O)[C@H](O)[C@H]3O)[C@H](O)[C@H]2O)c(Cl)c1 [2-chloro-4-nitrophenyl-β,D-maltoheptaoside]
α-amylase; line I in comparison with line III (4-nitrophenyl-α,D-maltoheptaoside), FIG. 1, Example 1
  increase of the change of absorption (Δ E/min.): ~ 0.05
α-amylase; relative to 4-nitrophenyl-α,D-maltoheptaoside, FIG. 1
  factor of increase of extinction change per minute: 3
α-amylase
  extinction change per minute: above 0.075

## O=[N+]([O-])c1ccc(O[C@H]2O[C@H](CO)[C@@H](O[C@H]3O[C@H](CO)[C@@H](O[C@H]4O[C@H](CO)[C@@H](O[C@H]5O[C@H](CO)[C@@H](O[C@H]6O[C@H](CO)[C@@H](O[C@H]7O[C@H](CO)[C@@H](O[C@H]8O[C@H](CO)[C@@H](O)[C@H](O)[C@H]8O)[C@H](O)[C@H]7O)[C@H](O)[C@H]6O)[C@H](O)[C@H]5O)[C@H](O)[C@H]4O)[C@H](O)[C@H]3O)[C@H](O)[C@H]2O)cc1 [4-nitrophenyl-α,D-maltoheptaoside, reference compound]
α-amylase
  extinction change per minute: 0.024

## O=[N+]([O-])c1ccc(O)c(Cl)c1 [2-chloro-4-nitrophenol]
[1]
  influence of change of the pH value on the extinction: less strongly influenced by change of the pH value

## O=[N+]([O-])c1ccc(O)cc1 [p-nitrophenol]
[2]
  liberated p-nitrophenol present as colored phenolate anion: about 50%

## O=[N+]([O-])c1ccc(O[C@H]2O[C@H](CO)[C@@H](O[C@H]3O[C@H](CO)[C@@H](O[C@H]4O[C@H](CO)[C@@H](O[C@H]5O[C@H](CO)[C@@H](O[C@H]6O[C@H](CO)[C@@H](O[C@H]7O[C@H](CO)[C@@H](O[C@H]8O[C@H](CO)[C@@H](O)[C@H](O)[C@H]8O)[C@H](O)[C@H]7O)[C@H](O)[C@H]6O)[C@H](O)[C@H]5O)[C@H](O)[C@H]4O)[C@H](O)[C@H]3O)[C@H](O)[C@H]2O)c(Cl)c1 [2-chloro-4-nitrophenyl-α,D-maltoheptaoside, reference compound]
α-amylase
  extinction change per minute: 0.036
